# Experiments:
# [1] = test system: cell population A (Mixed Neurons from Healthy Donor) and cell population B (GABAergic Neurons from Healthy Donor), neural cells derived from iPS cells; experiment: Action potential measurement (MEA, MED64 system) of the cell circuit board with cell populations A and B connected via neurites, and after cutting the neurites, treated with drug (Example 2); format: cell-based
# Experimental: Two types of frozen neural cell which are derived from iPS cells (GABAergic Neurons from Healthy Donor and Mixed Neurons from Healthy Donor) and are commercially available from Elixirgen Scientific were suspended in a medium and plated on a board including an electrode of a multi-electrode array (MEA; SCREEN Holdings Co., Ltd.) coated with 0.05% polyethyleneimine ([…]; manufactured by Sigma) and a 80 μg/mL laminin solution (manufactured by Sigma) in advance. Synchronous firing of the neural cells was checked to be induced by formation of a network after 3 weeks of the culture. A cell population containing more excitable cells and presenting synchronous firing in a short cycle was designated as a cell population A, and a cell population containing many suppressor cells and presenting synchronous firing in a long cycle was designated as a cell population B.
# FIG. 4 is a diagram illustrating a test flow in Example 1. First, a board 5 to which partition members 8a and 8b, which are made of dimethylpolysiloxane (PDMS), and frame members 9a and 9b are respectively bonded was prepared so that a region including the cell population A (10) and a region including the cell population B (20) are separated. Next, on the board 5, two types of cell suspension each including the cell population A (10) and the cell population B (20) having different electrophysiological behaviors which were obtained in “1.” were plated in the respective regions surrounded by the frame members 9a and 9b while not mixing these cell populations. In a case where an area of the region was as large as more than 10 mm^2, respective cell suspensions were plated using a micropipette. In a case where an area was as small as 10 mm^2 or less, plating could not be performed manually, and therefore respective cell suspensions were plated using an ink jet bioprinter for cell discharge. […]
# The cell population A and the cell population B were cultured for 4 weeks in a state in which they were connected via neurites (a state in which a neural network was formed), and action potentials detectable from the electrodes were measured for 5 minutes with an MED64 system (SCREEN Holdings Co., Ltd.). An electrical waveform was analyzed using software, BurstScope included in the MED64 system. […]
# For respective cell populations in “2.” which were treated with the drug, action potentials detectable from the electrodes were measured for 5 minutes with the MED64 system. […]
# The neurites between the cell population A and the cell population B were then cut as illustrated in FIG. 4. After cutting, the cells were cultured for 10 minutes in a CO2 incubator and stabilized, and then the action potential was measured again. […]
# [2] = test system: cell population A (iCell GABANeurons) and cell population B (GABAergic Neurons from Healthy Donor), neural cells derived from iPS cells; experiment: Action potential measurement (MEA, MED64 system) of the cell circuit board including an inhibitory GABAergic cell population, connected via neurites, treated with drug (Example 4); format: cell-based; conditions: 30 μM final concentration, 10 minutes at 37° C.; populations connected via neurites; FIG. 18
# Experimental: A cell circuit board in which the cell population A and the cell population B were disposed to be spaced apart from each other on the board was prepared using the same method as in Example 1 except that frozen neural cells which are derived from iPS cells (iCell GABANeurons) and are commercially available from Cellular Dynamics International were used as the cell population A, and the same cells as in Example 1 (GABAergic Neurons from Healthy Donor) were used as the cell population B.
# Using the same method as in Example 1, at the fourth week of the culture, action potentials detectable from the electrodes were measured for 5 minutes in a state in which the cell population A and the cell population B were connected via neurites. A raster plot that visualizes synchronized firing patterns is illustrated in FIG. 17. In addition, FIG. 16 illustrates a raster plot for visualizing firing patterns of respective cell populations cultured by plating on a board alone.
# The mixture was allowed to stand for 10 minutes in a CO2 incubator at 37° C.
# For respective cell populations in the above section “3.” which were treated with the drug, action potentials detectable from the electrodes were measured for 5 minutes with the MED64 system. The results are illustrated in FIG. 18.
# [3] = 10 μM final concentration, 10 minutes at 37° C., populations A and B connected via neurites, FIG. 8
# [4] = 10 μM, neurites between A and B cut, 10 minutes stabilization, FIG. 9
Compound,"firing pattern of the cell population A (short-cycle firing) [1, 3]","synchronization of the firing pattern of cell population A with cell population B [1, 3]","firing pattern of the cell population B after cutting the neurites [1, 4]","synchronous firing period of the cell population A after cutting the neurites [1, 4]",cycle of the synchronous firing pattern compared with before drug treatment [2],synchronization between cell population A and cell population B [2]
"N[C@H](CCCP(=O)(O)O)C(=O)O [D-AP5, D-(−)-2-amino-5-phosphonopentanoic acid]",firing in a short cycle disappeared,became a firing pattern synchronized in the form of the same cycle and peak as those of the cell population B,does not change,greatly prolonged,–,–
picrotoxin,–,–,–,–,significantly shorter cycle than that before the drug treatment,remained synchronized

# — patent publication US11754548B2, “Method of in vitro cellular assay, cell circuit board, and method of manufacturing cell circuit board” (RICOH COMPANY, LTD., priority 2019, dated 2023)
